# From patent US20220323554A1, “POLYSACCHARIDE-PEPTIDE COMPLEX FOR LOWERING BLOOD SUGAR, BLOOD LIPID AND GLYCOSYLATED HEMOGLOBIN LEVELS, AND PREPARATION METHOD” (CHINA YUNHONG HOLDINGS CO., LTD., priority 2019, published 2022)
# Counter-ions that a name gives are not always drawn.
# Key:
# [1] = tested on: diabetic animal model; assay: Evaluation tests for lowering blood sugar (urine sugar, fasting blood sugar) in streptozotocin rats; type: in vivo; details: positive control group, metformin hydrochloride solution, intragastric once per day for 15 days
# Experimental: Evaluation tests for lowering blood sugar were described below.
# 100 of healthy male rats were selected, numbered and fed adaptively in normal environment for 2 weeks, and free to eat and drink.
# After adaptive feeding, the rats were randomly divided into 5 groups with 20 rats in each group. Only one group was selected as the blank control group, the rest groups were subjected to disposable intraperitoneal injection with 5% streptozotocin STZ solution for 200 mg/kg. If there were coma among those rats within 2 h, glucose sugar solution was fed until awake. Two days later, the fasting blood sugar was detected. The rat with a blood sugar of more than 10 was selected as a diabetic animal model.
# The rats that were successfully modeled were randomly divided into model group, positive control group, low-dose group, medium-dose group and high-dose group according to blood sugar and body weight, with 20 rats in each group. The polysaccharide-peptide composites prepared in Examples 1-3 were diluted with water into intragastric solutions, which were fed to the low-dose group for 1.0 g/kg, the medium-dose group for 2.0 g/kg and the high-dose group for 3.0 g/kg, respectively. […]
# During the experiment, rats of each group were […] every day for 15 consecutive days. […] At the end of the experiment, the final blood sugar content was recorded.
# [2] = tested on: diabetic rat model; assay: Evaluation tests for lowering glycated hemoglobin (HbA1c) and blood lipid in diabetic rats (high-lipid emulsion + streptozotocin); type: in vivo, Sprague-Dawley (SD) rats; details: positive control group, metformin hydrochloride solution, intragastric once per day for 8 weeks
# Experimental: Evaluation tests for lowering glycated hemoglobin (HbA1c) were described below.
# Healthy male Sprague-Dawley (SD) rats with a body weight of 185-225 g were selected and fed adaptively for one week. After adaptive feeding, the SD rats were randomly divided into six groups each for 20 rats. One of the six groups was selected as a blank control group, and fed with ordinary feed. The rest five groups were subjected to intragastric administration with high-lipid emulsion for 10 mL/kg per day for 1 month. After the last feeding, rats were fasted for 12 h expect for water. The rats fed with high-lipid emulsion were subjected to disposable intraperitoneal injection with streptozotocin STZ solution for 25 mg/kg to establish a diabetic rat model. After streptozotocin injection for 72 h, the rats were fasted for 12 h expect for water and was taken blood samples from the tail to detect fasting blood sugar. The rat with a fasting blood glucose>10.0 mmol/L was considered as a successful model. The blank control group was intraperitoneally injected with citric acid-sodium citrate buffer solution.
# The rats that were successfully modeled were randomly divided into model group, positive control group, low-dose group, medium-dose group and high-dose group according to blood sugar and body weight, with 20 rats in each group. […]
# [3] = tested on: high-lipid model rats; assay: Evaluation tests for lowering blood lipid (TC, TG) in rats given high lipid diet; type: in vivo; details: positive control group, simvastatin solution 50 mg/kg bw d, intragastric
# Text: Evaluation tests for lowering blood lipid were described below. 60 of healthy male rats were selected, numbered and fed adaptively in normal environment for 2 weeks, and free to eat and drink. After the adaptive feeding, the rats were randomly divided into 6 groups with 10 rats in each group, consisting of a blank control group, a high-lipid model group, a positive treatment group, a high-dose group, a medium-dose group and a low-dose group. Except the blank control group, the other groups were given high lipid diet. The polysaccharide-peptide composites prepared in this application and simvastatin were respectively diluted. The positive control group was given simvastatin solution by intragastric administration for 50 mg/kg bw d, and the high, medium and low-dose groups were given polysaccharide-peptide solutions for 100 mg/kg bw d, 50 mg/kg bw d and 25 mg/kg bw d, respectively. Other groups were intragastric with corresponding volume of distilled water. The treatment period lasted for 4 weeks.
SMILES,Content of urine sugar ([1]; model group 1.74 ± 0.56) [mmol/L],Content of fasting blood sugar ([1]; model group 14.86 ± 2.38) [mmol/L],Content of blood lipid ([2]; model group 3.29 ± 0.58) [mmol/L],Content of HbA1c ([2]; model group 50.78 ± 3.76) [ng/mL],Content of TG ([3]; model group 0.57 ± 0.18) [mmol/L],Content of TC ([3]; model group 3.41 ± 0.58) [mmol/L]
CN(C)C(=N)N=C(N)N [metformin hydrochloride],1.44 ± 0.23,8.55 ± 1.37,2.52 ± 0.24,35.14 ± 1.25,,
CCC(C)(C)C(=O)O[C@H]1C[C@@H](C)C=C2C=C[C@H](C)[C@H](CC[C@@H]3C[C@@H](O)CC(=O)O3)[C@H]21 [simvastatin],,,,,0.32 ± 0.14,2.59 ± 0.24
